# Where two headings read alike, the source gives them in different places.
# Tests used:
# SARS-CoV-2 [1] = experiment: microbe, parasite or virus in culture; format: cell-based
# Calu-3 cells [2] = experiment: Uninfected Calu-3 48 h Cell-Titer Glo cytotoxicity counter screen; settings: curve plateau at infinite concentration
# in vitro = settings: human, Calu-3 uninfected cytotoxicity CC50 GeoMean
# Calu-3 cells [3] = experiment: cells; settings: Homo sapiens
# HeLa-ACE2 cells [4] = experiment: Total cell count in the HeLa-ACE2 TOA assay; format: cell-based; settings: Homo sapiens
# Text: Supplement 41467_2021_23328_MOESM3_ESM.xlsx, sheet "Table S1" | column: HeLa-ACE2 TOA cell count
# SARS-CoV-2 [5] = experiment: microbe, parasite or virus in culture; format: cell-based; remark: listed apart in the source
# HEK293T = HEK293T 72 h CellTiter-Glo cytotoxicity; settings: 72 h
# HeLa-ACE2 cells [6] = experiment: Uninfected HeLa-ACE2 24 h live/dead cytotoxicity counter screen; format: cell-based, human; settings: curve plateau at infinite concentration
# [7] = as above; format: cell-based, human; settings: human, uninfected HeLa-ACE2 cells; read-out: HeLa-ACE2 uninfected cytotoxicity CC50 GeoMean
# SARS-CoV-2 [8] = experiment: microbe, parasite or virus in culture; format: cell-based; remark: listed apart in the source
# HepG2 = HepG2 72 h CellTiter-Glo cytotoxicity; settings: 72 h
# HeLa-ACE2 cells [9] = experiment: cells; settings: Homo sapiens
smiles,measurement,setting,value
CCC(CC)COC(=O)[C@H](C)NP(=O)(OC[C@H]1O[C@@](C#N)(c2ccc3c(N)ncnn23)[C@H](O)[C@@H]1O)Oc1ccccc1 (stereo partly drawn) [Remdesivir - control],Emax,"SARS-CoV-2 [1]; Severe acute respiratory syndrome coronavirus 2, Calu-3, 48 h, curve plateau at infinite concentration, read-out: Calu-3 CoV-2 Sinf Average",100%
same,EC50,"SARS-CoV-2 [1]; Severe acute respiratory syndrome coronavirus 2, Calu-3, detail column, read-out: Calu-3 CoV-2 EC50 GeoMean",444 nM
same,Calu-3 uninfected cytotoxicity Sinf Average,Calu-3 cells [2],-100%
same,CC50,in vitro,> 30000 nM
same,Emax,"Calu-3 cells [3]; Calu-3, 48 h, read-out: Calu-3 cell count Sinf Average",101%
same,EC50,"Calu-3 cells [3]; Calu-3, read-out: Calu-3 cell count EC50 GeoMean",537 nM
same,Emax,"HeLa-ACE2 cells [4]; HeLa-ACE2, 10 h, curve plateau at infinite concentration, read-out: HeLa-ACE2 TOA cell count Sinf Average",100%
same,EC50,"HeLa-ACE2 cells [4]; HeLa-ACE2, read-out: HeLa-ACE2 TOA cell count EC50 GeoMean",> 2400 nM
same,Emax,"SARS-CoV-2 [5]; Severe acute respiratory syndrome coronavirus 2, HeLa-ACE2, 24 h, curve plateau at infinite concentration, read-out: HeLa-ACE2 CoV-2 Sinf Average",100%
same,EC50,"SARS-CoV-2 [5]; Severe acute respiratory syndrome coronavirus 2, HeLa-ACE2, detail column, read-out: HeLa-ACE2 CoV-2 EC50 GeoMean",123 nM
same,HEK293T 72-hour cytotoxicty Sinf Average,HEK293T,-95%
same,HeLa-ACE2 uninfected cytotoxicity Sinf Average,HeLa-ACE2 cells [6],-98%
same,CC50 at 24 h,[7],> 9670 nM
same,Emax,"SARS-CoV-2 [8]; Severe acute respiratory syndrome coronavirus 2, HeLa-ACE2, 10 h, curve plateau at infinite concentration, read-out: HeLa-ACE2 TOA CoV-2 Sinf Average",101%
same,EC50,"SARS-CoV-2 [8]; Severe acute respiratory syndrome coronavirus 2, HeLa-ACE2, read-out: HeLa-ACE2 TOA CoV-2 EC50 GeoMean",770 nM
same,HepG2 72-hour cytotoxicity Sinf Average,HepG2,-100%
same,Emax,"HeLa-ACE2 cells [9]; HeLa-ACE2, 24 h, read-out: HeLa-ACE2 cell count Sinf Average",-42%
same,EC50,"HeLa-ACE2 cells [9]; HeLa-ACE2, read-out: HeLa-ACE2 cell count EC50 GeoMean",> 1200 nM

# Reference: PMC8175350, “Drug repurposing screens identify chemical entities for the development of COVID-19 interventions” (Nature Communications, 2021)
